Assay [1] concerns the target human emopamil binding protein and human 7-dehydrocholesterol reductase co-expressing cells (hEBP-DHCR7 membrane) (Homo sapiens (Human), UniProt Q15125). The assay can be described thus: Radioligand filter binding assay on hEBP-DHCR7 membrane. The following applies: [3H]-(S)-6-(2-Methyl-3-(6-(trifluoromethyl)pyridin-3-yl)propyl)-2-thia-6-azaspiro[3.4]octane 2,2-dioxide radioligand, HEK293 membrane co-expressing hEBP and hDHCR7. How it is done:
Membrane Preparation: human emopamil binding protein and human 7-dehydrocholesterol reductase co-expressing cells were generated by transient transfecting host human embryonic kidney (HEK) 293 cells with 2 DNA constructs containing each protein's coding sequence. Cells were suspension cultured at 37° C. with 5% CO2 in […] 293 Expression Medium (Thermofisher). Whole cell membrane was prepared by harvesting the cell pellet, adding cold membrane buffer (50 mM Tris, pH7.5, lx Roche COMPLETE EDTA-free protease inhibitor cocktail) 10 times volume of the cell pellets weight, lysing cell pellet on ice by using Dounce homogenizer, spinning at 200 g 4° C. for 15 min, collecting supernatant and spinning again at 25000 g 4° C. for 50 min, transferring pellet to Dounce homogenizer, re-suspending pellet by homogenizing in membrane buffer on ice to reach ˜25 mg/mL, then keeping whole cell membrane aliquots at −80° C.
Compounds were prepared in a 96-well U bottom plate using an Echo550 machine and 10 mM compound DMSO stock solution, followed by an 8-dose 5-fold serial dilutions protocol with final testing compound concentration ranging from 0.06 to 5000 nM, with DMSO back fill to 100 nL/well and n=2. […] The UniFilter-96 GF/B plates were pre-treated by adding 50 μl/well of 0.3% (v/v) PEI to UniFilter-96 GF/B plates. The plates were sealed and incubated at 4° C. for 3 hrs. Then, the plates were washed with ice-cold assay buffer 3 times. The radioligand binding assay was prepared by adding assay buffer diluted hEBP-DHCR7 membrane at 66.7 μg/ml×150 μl/well into the 96-well compound plate to reach 10 μg membrane per well. Then, the assay buffer diluted [3H]—(S)-6-(2-Methyl-3-(6-(trifluoromethyl)pyridin-3-yl)propyl)-2-thia-6-azaspiro[3.4] octane 2,2-dioxide was added at 25 nM×50 μl/well. Following this, the plate was centrifuged at 1000 rpm for 30 secs. The plate was then sealed and agitated at 600 rpm at 22° C. for 5 min, and then incubated at 22° C. for 3 hrs. The incubation was stopped by transferring the binding solution to the pre-treated UniFilter-96 GF/B plate, vacuum filtrated, and then washed four times with ice-cold assay buffer. Following this, the plates were dried at 37° C. for 45 min. The plates were then sealed at the bottom. 40 μl/well of scintillation cocktail was added to the plates. A MicroBeta2 microplate counter was then used to read the plate and analyze the data. For reference and test compounds, the results are expressed as % Inhibition, using the normalization equation: N=100−100×(U−C2)/(C1−C2), where U is the unknown value, C1 is the average of high controls, and C2 is the average value of low controls. The IC50 was determined by fitting percentage of inhibition as a function of compound concentrations with Hill equation using XLfit. Results are expressed as hEBP-DHCR7 Ki (uM) in Table 4. Ki was calculated as described above. The asterix (*) indicates an isolated isomer or isolated group of isomers, but that the stereochemistry has not been assigned.

In assay [2] the test system is EBP (zymostenol accumulation in EpiSC-derived OPCs). The assay can be described thus: GC/MS-based sterol profiling, zymostenol accumulation in OPCs. To be noted: Mus musculus, 24 h, EpiSC-derived OPCs, 24 hr treatment, 8 doses from 0.15 nM to 333 nM; read-out: Zymostenol GCMS EC50. The assay is classed as cell-based, mouse. The protocol:
To assess effects of treatments on OPCs, all treatments were assayed in two or more independent platings of epiblast stem cell-derived OPCs ([…]-derived OPCs were obtained using in vitro differentiation protocols and culture conditions described previously (Najm et al, 2011, Nature Methods). OPCs were expanded and frozen down in aliquots. OPCs were thawed into growth conditions for at least one passage before use in further assays. Sterols were monitored using a modified Folch wash protocol (Hubler et al, 2018, Nature). EpiSC-derived OPCs were plated at 100,000 cells per well in PO- and laminin-coated 96-well plates in N2B27 media without growth factors. After 24 hours, cells were rinsed with saline and plates were frozen. Cholesterol-d7 standard was then added to each well before drying under nitrogen stream and derivatization with 55 μl of bis(trimethylsilyl) trifluoroacetamide. After derivatization, 2 μl were analyzed by gas chromatography/mass spectrometry using an Agilent 5973 Network Mass Selective Detector equipped with a 6890 gas chromatograph system and a HP-5MS capillary column (30 m×0.25 mm×0.25 mm). Samples were analyzed in full scan mode using electron impact ionization; ion fragment peaks were integrated to calculate sterol abundance, and quantitation was relative to cholesterol-d7. […] All standards were obtained from Avanti Polar Lipids unless otherwise indicated. Calibration curves were generated by injecting varying concentrations of sterol standards and maintaining a fixed amount of cholesterol-D7. For normalized zymostenol accumulation results, the total amount of zymostenol measured after drug treatment was divided by the total amount of zymostenol accumulated after 24 hr treatment with 100 nM positive control reference.

Results on 17 compounds are retold here after patent publication US20240398781A1, “SPIROCYCLIC CYCLIC MODULATORS OF CHOLESTEROL BIOSYNTHESIS AND THEIR USE FOR PROMOTING REMYELINATION” (GENENTECH, INC., priority 2021, published 2024).

Broadly, the Ki is a dissociation constant, usually derived from enzyme kinetics or from competition with a known ligand. Low values mean a stronger hold on the target, high ones a looser hold on the target. One may read the EC50 as the concentration needed to bring the measured effect to its halfway point.

Molecules are shown by their SMILES.

Chain of human emopamil binding protein and human 7-dehydrocholesterol reductase co-expressing cells (hEBP-DHCR7 membrane) (Q15125 whole entry): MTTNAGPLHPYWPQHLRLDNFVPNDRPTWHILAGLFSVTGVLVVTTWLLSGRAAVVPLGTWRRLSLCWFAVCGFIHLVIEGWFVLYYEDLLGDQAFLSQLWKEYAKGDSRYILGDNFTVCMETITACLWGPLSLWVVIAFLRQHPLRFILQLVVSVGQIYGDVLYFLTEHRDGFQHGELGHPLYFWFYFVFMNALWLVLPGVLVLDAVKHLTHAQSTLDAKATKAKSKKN

In assay [1], `O=S1(=O)CCC2(CCN([C@H]3CC[C@@H](c4ccc(C(F)(F)F)cn4)CC3)C2)CC1` [84A*, 2-((1r,4r)-4-(5-(Trifluoromethyl)pyridin-2-yl)cyclohexyl)-8-thia-2-azaspiro[4.5]decane 8,8-dioxide] returned a Ki of 310 nM. Also, the concentration for a half-maximal effect (EC50) in assay [2] turned out to be 100 nM.
The compound `O=S1(=O)CC2(CCN([C@H]3CC[C@@H](c4ncc(C(F)(F)F)cc4Cl)CC3)C2)C1` [Compound 48B, 6-((1s,4s)-4-(3-chloro-5-(trifluoromethyl)pyridin-2-yl)cyclohexyl)-2-thia-6-azaspiro[3.4]octane 2,2-dioxide] displayed a Ki in assay [1] of 9.6 nM. The EC50 in assay [2] turned out to be 14 nM.
Compound `Cc1nc(C(F)(F)F)ccc1[C@H]1CC[C@@H](N2CCC3(C2)CS(=O)(=O)C3)CC1` [Compound 51B, 6-((1s,4s)-4-(2-methyl-6-(trifluoromethyl)pyridin-3-yl)cyclohexyl)-2-thia-6-azaspiro[3.4]octane 2,2-dioxide] registered a Ki in assay [1] of 14 nM. Further, the EC50 in assay [2] was determined as 5.9 nM.
For the compound `O=S1(=O)CC2(CCN([C@H]3CC[C@@H](c4ccnc(C(F)(F)F)c4)CC3)C2)C1` [Compound 60B, 6-((1s,4s)-4-(2-(trifluoromethyl)pyridin-4-yl)cyclohexyl)-2-thia-6-azaspiro[3.4]octane 2,2-dioxide], the affinity in assay [1] corresponds to a Ki of 21 nM. In addition, in assay [2], the EC50 was 85 nM.
For `O=S1(=O)CC2(CCN([C@H]3CC[C@@H](c4cccc(C(F)(F)F)n4)CC3)C2)C1` [Compound 62A, 6-((1s,4s)-4-(6-(trifluoromethyl)pyridin-2-yl)cyclohexyl)-2-thia-6-azaspiro[3.4]octane 2,2-dioxide], in assay [1], the Ki stood at 23 nM. Further, the EC50 in assay [2] is 45 nM.
Taken in the same sequence, the figures for `O=S1(=O)CC2(CCN([C@H]3CC[C@H](c4cncc(C(F)(F)F)c4)CC3)C2)C1` [Compound 63A, 6-((1r,4r)-4-(5-(trifluoromethyl)pyridin-3-yl)cyclohexyl)-2-thia-6-azaspiro[3.4]octane 2,2-dioxide] were 75 nM and 12 nM.
In assay [1], `O=S1(=O)CC2(CCN([C@H]3CC[C@@H](c4cncc(C(F)(F)F)c4)CC3)C2)C1` [Compound 63B, 6-((1s,4s)-4-(5-(trifluoromethyl)pyridin-3-yl)cyclohexyl)-2-thia-6-azaspiro[3.4]octane 2,2-dioxide] returned a Ki of 66 nM. In assay [2], the EC50 worked out at 289 nM.
In assay [1], `CCc1nc(C(F)(F)F)ccc1[C@H]1CC[C@@H](N2CCC3(C2)CS(=O)(=O)C3)CC1` [Compound 64B, 6-((1s,4s)-4-(2-ethyl-6-(trifluoromethyl)pyridin-3-yl)cyclohexyl)-2-thia-6-azaspiro[3.4]octane 2,2-dioxide] yielded a Ki of 12 nM. For the same compound, the EC50 in assay [2] was found to be 3.2 nM.
The corresponding values for `CC(C)c1nc(C(F)(F)F)ccc1[C@H]1CC[C@@H](N2CCC3(C2)CS(=O)(=O)C3)CC1` [Compound 65B, 6-((1s,4s)-4-(2-isopropyl-6-(trifluoromethyl)pyridin-3-yl)cyclohexyl)-2-thia-6-azaspiro[3.4]octane 2,2-dioxide] are 8 nM and 2.8 nM.
`O=S1(=O)CC2(CCN([C@H]3CC[C@H](c4ccc(C(F)F)nc4)CC3)C2)C1` [Compound 67, 6-((1r,4r)-4-(6-(difluoromethyl)pyridin-3-yl)cyclohexyl)-2-thia-6-azaspiro[3.4]octane 2,2-dioxide]: the affinity in assay [1], expressed as Ki, was 180 nM. Moreover, in assay [2], the EC50 is 30 nM.
Regarding `O=S1(=O)CC2(CCN([C@H]3CC[C@@H](c4ccc(F)c(F)c4)CC3)C2)C1` [Compound 70B, 6-((1s,4s)-4-(3,4-difluorophenyl)cyclohexyl)-2-thia-6-azaspiro[3.4]octane 2,2-dioxide], affinity in assay [1] was put at a Ki of 6.7 nM. Also, the EC50 in assay [2] worked out at 19 nM.
`O=S1(=O)CC2(CCN([C@H]3CC[C@@H](c4cnc(C(F)(F)F)c(F)c4)CC3)C2)C1` [Compound 72B, 6-((1s,4s)-4-(5-fluoro-6-(trifluoromethyl)pyridin-3-yl)cyclohexyl)-2-thia-6-azaspiro[3.4]octane 2,2-dioxide] had a Ki in assay [1] of 26 nM. Also, in assay [2], the EC50 worked out at 59 nM.
Taken in the same sequence, the figures for `O=S1(=O)CC2(CCN([C@H]3CC[C@H](c4ncc(C(F)(F)F)cc4F)CC3)CC2)C1` [Compound 80A, 7-((1r,4r)-4-(3-Fluoro-5-(trifluoromethyl)pyridin-2-yl)cyclohexyl)-2-thia-7-azaspiro[3.5] nonane 2,2-dioxide] were 67 nM and 11 nM.
Taken in the same sequence, the figures for `CC(C)(C)n1nc(C(F)(F)F)cc1[C@H]1CC[C@H](N2CCC3(CC2)CS(=O)(=O)C3)CC1` [Compound 85A, 7-((1r,4r)-4-(1-(tert-Butyl)-3-(trifluoromethyl)-1H-pyrazol-5-yl)cyclohexyl)-2-thia-7-azaspiro[3.5]nonane 2,2-dioxide] were 15 nM and 8.1 nM.
In the case of `O=S1(=O)CC2(CCN([C@H]3CC[C@H](c4ccnc(C(F)(F)F)c4)CC3)CC2)C1` [Compound 90B, 7-((1r,4r)-4-(2-(trifluoromethyl)pyridin-4-yl)cyclohexyl)-2-thia-7-azaspiro[3.5]nonane 2,2-dioxide], the affinity in assay [1], expressed as Ki, was 1290 nM. The EC50 in assay [2] was determined as 42 nM.
In assay [1], `O=S1(=O)CC2(CCN([C@H]3CC[C@H](c4cnc(C(F)(F)F)nc4)CC3)C2)C1` [Compound 94A, 6-((1r,4r)-4-(2-(Trifluoromethyl)pyrimidin-5-yl)cyclohexyl)-2-thia-6-azaspiro[3.4]octane 2,2-dioxide] had a Ki of 230 nM. Moreover, the EC50 in assay [2] stood at 81 nM.
Taken in the same sequence, the figures for `O=S1(=O)CC2(CCN([C@H]3CC[C@@H](c4cnc(C(F)(F)F)nc4)CC3)C2)C1` [Compound 94B, 6-((1s,4s)-4-(2-(trifluoromethyl)pyrimidin-5-yl)cyclohexyl)-2-thia-6-azaspiro[3.4]octane 2,2-dioxide] were 115 nM and 250 nM.
